According to US7381705B2, “Inhibitors of hepatitis C virus” (The Administrators Of The Tulane Educational Fund, priority 2004, dated 2008):
Read-outs that look alike come from different tables or passages of the source. Ends that are not written are not given here.

Test system: HCV pseudotype (HIV core proteins, HCV E1 and E2 of strain H77)
Conditions: for Percent inhibition: 25 μM; for Inhibition of HCV pseudotype infectivity (in words): summary of Tables 7 and 8
[1] = HCV J4 1b E2 peptides at ~25 μM, Table 8, controls as in Table 7
[2] = HCV H77 1a E2 peptides at ~25 μM, Table 7, virus alone 448,123

CC(C)C[C@H](NC(=O)[C@H](CC(C)C)NC(=O)[C@H](CC(C)C)NC(=O)[C@@H]1CCCN1C(=O)[C@H](CO)NC(=O)[C@H](CC(C)C)NC(=O)[C@H](CCC(=O)O)NC(=O)[C@H](CO)NC(=O)[C@H](CCCNC(=N)N)NC(=O)[C@H](CC(=O)O)NC(=O)[C@H](CCCNC(=N)N)NC(=O)[C@H](CC(=O)O)NC(=O)[C@H](CCC(=O)O)NC(=O)[C@H](CC(C)C)NC(=O)[C@H](CC(N)=O)NC(=O)[C@@H](N)CS)C(=O)N[C@@H](CO)C(=O)N[C@H](C(=O)O)[C@@H](C)O [compound 113, CNLEDRDRSELSPLLLST]
Percent inhibition: −27.3% | Luciferase units [1]: 570,553 luciferase units (lumens)

CC[C@H](C)[C@H](NC(=O)[C@H](CCC(N)=O)NC(=O)[C@H](Cc1c[nH]c2ccccc12)NC(=O)[C@H](CCC(=O)O)NC(=O)[C@@H](NC(=O)[C@@H](NC(=O)[C@H](CO)NC(=O)[C@H](CC(C)C)NC(=O)[C@H](CC(C)C)NC(=O)[C@H](CC(C)C)NC(=O)[C@@H]1CCCN1C(=O)[C@H](CO)NC(=O)[C@H](CC(C)C)NC(=O)[C@H](CCC(=O)O)NC(=O)[C@H](CO)NC(=O)[C@@H](N)CCCNC(=N)N)[C@@H](C)O)[C@@H](C)O)C(=O)N[C@@H](CC(C)C)C(=O)N1CCC[C@H]1C(=O)O [compound 114, RSELSPLLLSTTEWQILP]
Percent inhibition: 39.7% | Luciferase units [1]: 270,190 luciferase units (lumens)

AFVSFAIKWEYILLLFLL [compound 119, AFVSFAIKWEYILLLFLL]
Percent inhibition: 84.6% | Luciferase units [1]: 69,220 luciferase units (lumens)

AGVDAETHVTGGSAGRTT [peptide 1, AGVDAETHVTGGSAGRTT]
Percent inhibition: 44.1% | Luciferase units [2]: 250,376 luciferase units (lumens)

AGVDGETHTTGRVAGHTT [compound 54, AGVDGETHTTGRVAGHTT]
Percent inhibition: 17.9% | Luciferase units [1]: 372,393 luciferase units (lumens)

AKQNIQLINTNGSWHINS [peptide 5, AKQNIQLINTNGSWHINS]
Percent inhibition: 89.3% | Luciferase units [2]: 48,000 luciferase units (lumens) | Inhibition of HCV pseudotype infectivity (in words): inhibitory

ARVCACLWMMLLIAQAEA [compound 121]
Percent inhibition: 24.5% | Luciferase units [1]: 338,200 luciferase units (lumens)

ARVCSCLWMMLLISQAEA [compound 49]
Percent inhibition: 31.4% | Luciferase units [2]: 307,310 luciferase units (lumens)

CDLEDRDRSELSPLLLST [compound 38, CDLEDRDRSELSPLLLST]
Percent inhibition: 23.0% | Luciferase units [2]: 345,110 luciferase units (lumens)

DTDVFVLNNTRPPLGNWF [compound 21, DTDVFVLNNTRPPLGNWF]
Percent inhibition: 45.9% | Luciferase units [2]: 242,223 luciferase units (lumens)

DWFAQGWGPITYTKPNSS [compound 89, DWFAQGWGPITYTKPNSS]
Percent inhibition: −0.3% | Luciferase units [1]: 449,293 luciferase units (lumens)

DYPYRLWHYPCTINYTIF [compound 32, DYPYRLWHYPCTINYTIF]
Percent inhibition: 81.0% | Luciferase units [2]: 85,086 luciferase units (lumens) | Inhibition of HCV pseudotype infectivity (in words): inhibitory

DYPYRLWHYPCTLNFSIF [compound 108, DYPYRLWHYPCTLNFSIF]
Percent inhibition: 90.9% | Luciferase units [1]: 40,853 luciferase units (lumens) | Inhibition of HCV pseudotype infectivity (in words): inhibitory

FYAHKFNSSGCPERMASC [compound 86]
Percent inhibition: 11.2% | Luciferase units [1]: 398,110 luciferase units (lumens)

FYQHKFNSSGCPERLASC [compound 9]
Percent inhibition: −11.8% | Luciferase units [2]: 501,126 luciferase units (lumens)

GHTTSGFTSLFSSGASQK [compound 81, GHTTSGFTSLFSSGASQK]
Percent inhibition: −7.3% | Luciferase units [1]: 480,623 luciferase units (lumens)

GNNTLLCPTDCFRKHPEA [compound 27]
Percent inhibition: −28.4% | Luciferase units [2]: 575,206 luciferase units (lumens)

GNRILICPTDCFRKHPEA [compound 103]
Percent inhibition: 31.8% | Luciferase units [1]: 305,690 luciferase units (lumens)

GNWFGCTWMNSTGFTKVC [compound 23]
Percent inhibition: 17.9% | Luciferase units [2]: 367,916 luciferase units (lumens)

GPISYANGSGLDERPYCW [compound 13, GPISYANGSGLDERPYCW]
Percent inhibition: 31.1% | Luciferase units [2]: 313,323 luciferase units (lumens)

GRTTAGLVGLLTPGAKQN [peptide 3, GRTTAGLVGLLTPGAKQN]
Percent inhibition: 0.05% | Luciferase units [2]: 447,906 luciferase units (lumens)

GSGLDERPYCWHYPPRPC [compound 14]
Percent inhibition: 37.6% | Luciferase units [2]: 279,626 luciferase units (lumens)

HINSTALNCNESLNTGWL [compound 7, HINSTALNCNESLNTGWL]
Percent inhibition: 14.9% | Luciferase units [2]: 381,340 luciferase units (lumens)

HPEATYSRCGSGPWITPR [compound 29, HPEATYSRCGSGPWITPR]
Percent inhibition: 33.6% | Luciferase units [2]: 297,353 luciferase units (lumens)

HPEATYTKCGSGPWLTPR [compound 105, HPEATYTKCGSGPWLTPR]
Percent inhibition: −23.2% | Luciferase units [1]: 552,170 luciferase units (lumens)

HRLEAACNWTRGERCDLE [compound 36]
Percent inhibition: −19.5% | Luciferase units [2]: 535,016 luciferase units (lumens)

HRLNAACNWTRGERCNLE [compound 111]
Percent inhibition: −39.2% | Luciferase units [1]: 632,613 luciferase units (lumens)

HVTGGSAGRTTAGLVGLL [peptide 2, HVTGGSAGRTTAGLVGLL]
Percent inhibition: 0.2% | Luciferase units [2]: 447,336 luciferase units (lumens)

HYPCTINYTIFKVRMYVG [compound 33, HYPCTINYTIFKVRMYVG]
Percent inhibition: 95.0% | Luciferase units [2]: 22,406 luciferase units (lumens) | Inhibition of HCV pseudotype infectivity (in words): inhibitory

HYPCTLNFSIFKVRMYVG [compound 109, HYPCTLNFSIFKVRMYVG]
Percent inhibition: 79.4% | Luciferase units [1]: 96,893 luciferase units (lumens) | Inhibition of HCV pseudotype infectivity (in words): inhibitory

INTNGSWHINSTALNCNE [peptide 6, INTNGSWHINSTALNCNE]
Percent inhibition: −12.3% | Luciferase units [2]: 503,446 luciferase units (lumens)

ITPRCMVDYPYRLWHYPC [compound 31]
Percent inhibition: 6.4% | Luciferase units [2]: 419,263 luciferase units (lumens)

KCGSGPWLTPRCLVDYPY [compound 106]
Percent inhibition: 60.4% | Luciferase units [1]: 193,533 luciferase units (lumens)

KWEYVVLLFLLLADARVC [compound 47, KWEYVVLLFLLLADARVC]
Percent inhibition: 56.4% | Luciferase units [2]: 195,320 luciferase units (lumens)

LASCRRLTDFAQGWGPIS [compound 11, LASCRRLTDFAQGWGPIS]
Percent inhibition: 19.6% | Luciferase units [2]: 360,410 luciferase units (lumens)

LFLLLADARVCACLWMML [compound 120]
Percent inhibition: −3.4% | Luciferase units [1]: 463,243 luciferase units (lumens)

LFLLLADARVCSCLWMML [compound 48]
Percent inhibition: 35.1% | Luciferase units [2]: 290,786 luciferase units (lumens)

LLSTTEWQILPCAFTTLP [compound 115, LLSTTEWQILPCAFTTLP]
Percent inhibition: −6.2% | Luciferase units [1]: 475,713 luciferase units (lumens)

LLSTTQWQVLPCSFTTLP [compound 40, LLSTTQWQVLPCSFTTLP]
Percent inhibition: 1.3% | Luciferase units [2]: 442,346 luciferase units (lumens)

LTPRCLVDYPYRLWHYPC [compound 107]
Percent inhibition: 11.1% | Luciferase units [1]: 402,976 luciferase units (lumens)

MASCRPIDWFAQGWGPIT [compound 88, MASCRPIDWFAQGWGPIT]
Percent inhibition: 7.9% | Luciferase units [1]: 412,776 luciferase units (lumens)

MYVGGVEHRLEAACNWTR [compound 35, MYVGGVEHRLEAACNWTR]
Percent inhibition: 66.7% | Luciferase units [2]: 153,553 luciferase units (lumens)

NCNESLNTGWLAGLFYQH [compound 8, NCNESLNTGWLAGLFYQH]
Percent inhibition: 74.6% | Luciferase units [2]: 113,650 luciferase units (lumens)

NNTRPPLGNWFGCTWMNS [compound 22, NNTRPPLGNWFGCTWMNS]
Percent inhibition: 45.2% | Luciferase units [2]: 245,900 luciferase units (lumens)

NWTRGERCDLEDRDRSEL [compound 37, NWTRGERCDLEDRDRSEL]
Percent inhibition: −30.7% | Luciferase units [2]: 585,553 luciferase units (lumens)

PASQVCGPVYCFTPSPVV [compound 93]
Percent inhibition: 9.7% | Luciferase units [1]: 409,220 luciferase units (lumens)

PNSSDQRPYCWHYAPRPC [compound 90]
Percent inhibition: 5.5% | Luciferase units [1]: 423,326 luciferase units (lumens)

PTDCFRKHPEATYSRCGS [compound 28]
Percent inhibition: 11.9% | Luciferase units [2]: 394,780 luciferase units (lumens)

PTDCFRKHPEATYTKCGS [compound 104]
Percent inhibition: 6.3% | Luciferase units [1]: 419,876 luciferase units (lumens)

PVYCFTPSPVVVGTTDRS [compound 18, PVYCFTPSPVVVGTTDRS]
Percent inhibition: 2.9% | Luciferase units [2]: 435,026 luciferase units (lumens)

PVYCFTPSPVVVGTTDRS [compound 94, PVYCFTPSPVVVGTTDRS]
Percent inhibition: 30.4% | Luciferase units [1]: 311,736 luciferase units (lumens)

PYCWHYAPRPCGVVPASQ [compound 91]
Percent inhibition: 69.1% | Luciferase units [1]: 160,883 luciferase units (lumens)

QILPCAFTTLPALSTGLI [compound 116, QILPCAFTTLPALSTGLI]
Percent inhibition: 12.1% | Luciferase units [1]: 394,096 luciferase units (lumens)

QNIVDVQYLYGVGSSIAS [compound 44, QNIVDVQYLYGVGSSIAS]
Percent inhibition: 79.6% | Luciferase units [2]: 91,266 luciferase units (lumens) | Inhibition of HCV pseudotype infectivity (in words): inhibitory

QVLPCSFTTLPALSTGLI [compound 41, QVLPCSFTTLPALSTGLI]
Percent inhibition: 3.0% | Luciferase units [2]: 434,743 luciferase units (lumens)
